Data set [1] concerns the target T1, FXR (Rattus norvegicus, UniProt Q62735).
T1 sequence (Q62735 1-469): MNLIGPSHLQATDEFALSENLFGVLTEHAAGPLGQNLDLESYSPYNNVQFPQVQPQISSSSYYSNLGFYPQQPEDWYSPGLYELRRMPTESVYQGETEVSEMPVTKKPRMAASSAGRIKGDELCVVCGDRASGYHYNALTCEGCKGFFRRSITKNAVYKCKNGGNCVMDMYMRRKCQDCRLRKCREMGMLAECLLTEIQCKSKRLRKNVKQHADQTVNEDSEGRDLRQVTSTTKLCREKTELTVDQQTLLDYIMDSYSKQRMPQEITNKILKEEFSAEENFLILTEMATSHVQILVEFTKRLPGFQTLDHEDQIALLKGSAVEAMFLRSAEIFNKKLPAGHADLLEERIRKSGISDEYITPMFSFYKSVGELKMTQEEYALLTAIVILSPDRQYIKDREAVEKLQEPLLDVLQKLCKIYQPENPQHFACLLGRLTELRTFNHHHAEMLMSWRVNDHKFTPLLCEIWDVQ
T1 sequence (P28700 1-467 partner): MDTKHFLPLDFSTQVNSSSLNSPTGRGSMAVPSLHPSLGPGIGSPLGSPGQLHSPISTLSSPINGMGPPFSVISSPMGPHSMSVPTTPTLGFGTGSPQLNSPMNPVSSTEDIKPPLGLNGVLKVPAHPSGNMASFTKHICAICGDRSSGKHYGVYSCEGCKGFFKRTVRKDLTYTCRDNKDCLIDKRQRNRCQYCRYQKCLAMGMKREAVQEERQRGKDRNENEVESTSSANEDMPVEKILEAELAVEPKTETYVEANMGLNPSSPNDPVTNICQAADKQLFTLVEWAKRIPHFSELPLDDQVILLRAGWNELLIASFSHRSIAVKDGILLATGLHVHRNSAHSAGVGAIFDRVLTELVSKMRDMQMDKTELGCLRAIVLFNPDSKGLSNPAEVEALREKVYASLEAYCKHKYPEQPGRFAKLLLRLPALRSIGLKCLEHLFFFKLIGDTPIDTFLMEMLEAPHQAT
Description: cell-based. The gist of the method: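 CHO cells co-transfected with FXR, mouse RXRα and a (EcRE)5-ΔMTV-CAT reporter, with β-galactosidase for normalization. An RXR-dependent CRBPII-CAT reporter was run in parallel. Cells were exposed to candidate juvenoids for 24 h; CAT activity normalized to β-gal and expressed as fold induction over vehicle controls.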

For data set [2] the following is noted: via 20,22-dihydroxycholesterol intermediate; read-out: apparent Km of metabolism to pregnenolone; cited from earlier work.
Data set [3] has as its system Leptinotarsa decemlineata EcR. In words: Leptinotarsa decemlineata EcR/USP, response to agonists (FIG. 7, 8). In kind it is cell-based. The note with it: FIG. 8. As for the experimental part:
Unless noted otherwise, 100 ng of each EcR and USP plasmid was transfected into 2 ml of cell culture medium. As noted above, a reporter gene carrying five tandem copies of the hsp27 ecdysone response element (Riddihough and Pelham, 1986) is attached to a constitutive thymidine kinase promoter and a luciferase reporter gene (pEcREtk-LUC) and cotransfected into the cells along with vectors expressing EcR, USP, and a constitutively active β-galactosidase gene with lipofection, following manufacturer's protocols. The subsequent measure of luciferase activity reflects ecdysteroid-inducible transcription.
After a 4 hour transfection period, the hormone treatment was applied by diluting stock solutions of muristerone A (murA; Alexis Corporation, San Diego, Calif.), JHI (Scitech), JHIII (Sigma, St Louis, Mo.), and/or 20E (Sigma, St Louis, Mo.) in DMSO. The cells were harvested 24 hours after treatment and the contents of the cells extracted for performing the luciferase and β-galactosidase assays.
Leptinotarsa decemlineata (Ld) USP constructs were made by sub-cloning two different LdUSP inserts into the pVP16 vector (Clontech). This vector encodes a fusion protein of the herpes simplex virus […] viral protein (VP16) activation domain (AD) fused to LdUSP. The LdUSP portion of the fusion gene was isolated by PCR in two different lengths from a plasmid, pBSKS(+)-LdUSP. […]

The target of data set [4] is T2, GGF (Rattus norvegicus, UniProt Q62735).
T2 construct: the GR amino terminus and DBD (appending 23 amino acids downstream from the conserved gly-met) were fused to the FXR LBD; expressed in transfected cells; host or cells: CHO
In words: GGF chimera (GR amino terminus and DBD, FXR LBD) in CHO cells. In kind it is cell-based. As to conditions: data not shown. The text has this: A plasmid was constructed that expresses a hybrid protein (GGF) consisting of the human GR amino terminus and DBD linked to the carboxyl terminus of FXR.
In these experiments, CHO cells were transfected with receptor plasmids expressing GGF and mouse RXRα and a luciferase reporter plasmid containing the upstream 1.5 kbp of the MTV promoter.

Data set [5] deals with RAR. Description: RAR-based transcriptional assay. In kind it is cell-based. As to conditions: data not shown.
For data set [6], the target named is RXR (Mus musculus, UniProt P28700). Description: RXR-based transcriptional assay. In kind it is cell-based. The note with it: data not shown.
Data set [7] has as its system PPAR. Description: PPAR-based transcriptional assay. In kind it is cell-based. As to conditions: data not shown.
The target in data set [8] is GR (Homo sapiens, UniProt P04150). In words: GR-based transcriptional assay. The class given is cell-based. As to conditions: data not shown.
Chain of GR (P04150 whole entry): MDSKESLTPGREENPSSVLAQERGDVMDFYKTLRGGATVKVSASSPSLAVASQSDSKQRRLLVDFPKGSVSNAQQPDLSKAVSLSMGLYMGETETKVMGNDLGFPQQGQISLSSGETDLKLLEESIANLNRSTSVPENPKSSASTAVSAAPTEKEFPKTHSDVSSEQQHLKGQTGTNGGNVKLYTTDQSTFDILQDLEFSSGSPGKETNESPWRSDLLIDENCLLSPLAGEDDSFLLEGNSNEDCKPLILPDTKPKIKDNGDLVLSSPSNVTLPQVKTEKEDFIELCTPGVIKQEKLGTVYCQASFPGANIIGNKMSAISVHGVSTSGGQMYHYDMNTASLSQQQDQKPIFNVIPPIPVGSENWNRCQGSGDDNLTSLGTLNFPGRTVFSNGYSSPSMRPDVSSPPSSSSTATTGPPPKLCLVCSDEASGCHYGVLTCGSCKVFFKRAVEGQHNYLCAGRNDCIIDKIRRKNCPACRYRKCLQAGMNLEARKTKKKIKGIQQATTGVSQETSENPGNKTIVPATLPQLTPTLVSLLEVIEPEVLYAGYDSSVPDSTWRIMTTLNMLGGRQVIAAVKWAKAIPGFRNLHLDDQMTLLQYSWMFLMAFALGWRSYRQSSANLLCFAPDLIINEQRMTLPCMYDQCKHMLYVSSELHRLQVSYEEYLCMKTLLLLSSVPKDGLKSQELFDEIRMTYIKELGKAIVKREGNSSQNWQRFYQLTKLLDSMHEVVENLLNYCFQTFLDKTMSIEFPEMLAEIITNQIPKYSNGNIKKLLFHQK

`CC(C)CC[C@@H](O)[C@@H](C)[C@H]1CC[C@H]2[C@@H]3CC=C4C[C@@H](O)CC[C@]4(C)[C@H]3CC[C@]12C` [22R-hydroxycholesterol, 22R-Hydroxycholesterol]: the “FXR-dependent transcription, induction” value in data set [1] (7.5 μM) stood at 10 fold. For the same molecule, the Km in data set [2] was 7 µM.
Take `COc1cccc(C(=O)NN(C(=O)c2cc(C)cc(C)c2)C(C)(C)C)c1C` [RH2485]: the “stimulation of Leptinotarsa EcR, agonists compared” value in data set [3] is “much greater stimulation by RH2485, than by murA or 20E”.
`O=c1ccc2cc(O)c(O)cc2o1` [esculetin]: in data set [1] (1 mM), the “FXR-dependent activity, induction” value is “ineffectiveness”. Also, the inhibition at 100 µM in data set [1] (CHO, read-out: inhibition of FXR activity induced by farnesol) was 44%. The “inhibition of CDCA-induced GGF-dependent activity” value in data set [4] is given as 54%.
Regarding `COc1ccc2c(c1)OC(C)(C)C=C2` [precocene I], the “reduction of FXR activity of mouse liver microsome extract by ethyl acetate-soluble products” value in data set [1] (100 μM TLC-purified precocene I incubated with CD-1 mouse liver microsomes, NADPH, 37° C., one hour) was 70%. Besides, the “FXR-dependent activity, induction” value in data set [1] (dose not stated) turned out to be 15 fold. Also, the “FXR activity of TLC-separated material from precocene I” value in data set [1] (eluted from silica, hexane-ethyl acetate (9:1)) is given as “did not affect FXR”. For the same molecule, the EC50 in data set [1] (read-out: EC50 for FXR-dependent CAT activity) was found to be 150 µM. In addition, in data set [5], the “activity in RAR-based transcriptional assay” value was “inactive”. The “activity in RXR-based transcriptional assay” value in data set [6] was “inactive”. In addition, the “activity in PPAR-based transcriptional assay” value in data set [7] is “inactive”. Moreover, the “activity in GR-based transcriptional assay” value in data set [8] was “inactive”.

The record behind these values is patent publication US8637237B2, “Methods, compositions, and systems for the identification of species-specific or developmental stage-specific insecticides” (The University of North Carolina at Greensboro, priority 2003, dated 2014).
